Experimental data from US8969565B2, “Imidazo[1,2-b]pyridazine-based compounds, compositions comprising them, and methods of their use” (Lexicon Pharmaceuticals, Inc., priority 2012, dated 2015).

Tests used:
AAK1 [1] = biological target: T1, AAK1 (Homo sapiens, UniProt Q2M2I8); test: P81 filter plate assay; type: biochemical; settings: full-length human AAK1, Mu2 substrate
T1 construct: HA; expressed in transfected cells; host or cells: HEK293F

AAK1 [2] = biological target: T1, AAK1; test: HEK281 cell-based assay (phospho-mu2 Western blot in transfected HEK293F cells); settings: 3 hours incubation, read-out: CBA IC50
Procedure, shortened: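 HEK293F cells co-transfected with full-length human AAK1/HA and Flag/AP2M1 were treated next day with 5 compound concentrations (3-fold dilutions) in DMEM+0.5% FBS for 3 hours at 37° C. Lysates were Western blotted for phospho-mu2, with total mu2 detected by anti-Flag.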

T1 sequence (Q2M2I8 1-863 isoform Q2M2I8-2): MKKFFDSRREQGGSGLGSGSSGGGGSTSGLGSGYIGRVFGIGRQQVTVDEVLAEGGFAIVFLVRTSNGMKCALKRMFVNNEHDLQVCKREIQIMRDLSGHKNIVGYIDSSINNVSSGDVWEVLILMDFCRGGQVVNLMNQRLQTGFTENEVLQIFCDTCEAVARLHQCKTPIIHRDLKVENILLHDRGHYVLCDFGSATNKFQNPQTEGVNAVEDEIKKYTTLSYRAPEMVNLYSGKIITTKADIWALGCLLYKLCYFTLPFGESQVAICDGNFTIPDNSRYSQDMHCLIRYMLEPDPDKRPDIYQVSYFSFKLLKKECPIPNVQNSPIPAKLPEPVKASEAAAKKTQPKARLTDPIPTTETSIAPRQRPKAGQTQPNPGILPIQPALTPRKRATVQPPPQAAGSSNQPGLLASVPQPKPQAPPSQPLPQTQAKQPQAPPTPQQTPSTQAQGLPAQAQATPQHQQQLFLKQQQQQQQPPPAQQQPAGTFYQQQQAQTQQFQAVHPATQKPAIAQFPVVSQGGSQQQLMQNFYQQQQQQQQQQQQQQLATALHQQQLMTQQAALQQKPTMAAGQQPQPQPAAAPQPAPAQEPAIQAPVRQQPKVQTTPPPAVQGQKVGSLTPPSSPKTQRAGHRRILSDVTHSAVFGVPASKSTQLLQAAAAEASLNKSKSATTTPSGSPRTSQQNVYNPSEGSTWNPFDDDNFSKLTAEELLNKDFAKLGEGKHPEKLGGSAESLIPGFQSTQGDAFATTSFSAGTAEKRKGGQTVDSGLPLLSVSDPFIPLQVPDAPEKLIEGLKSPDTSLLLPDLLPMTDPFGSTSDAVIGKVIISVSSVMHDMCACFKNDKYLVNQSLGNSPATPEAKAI

Structure (SMILES) | IC50 (AAK1 [1]) | IC50 (AAK1 [2])
COc1ccccc1-c1cnc2ccc(N3CCN(C(=O)NC(C)C)CC3)nn12 [N-isopropyl-4-(3-(2-methoxyphenyl)imidazo[1,2-b]pyridazin-6-yl)piperazine-1-carboxamide] | ≤ 10 nM | ≤ 1000 nM
Fc1ncccc1-c1cnc2ccc(NCCOC3CCCC3)nn12 [N-(2-(cyclopentyloxy)ethyl)-3-(2-fluoropyridin-3-yl)imidazo[1,2-b]pyridazin-6-amine] | ≤ 10 nM | ≤ 1000 nM
CC(C)OC(=O)N1CCN(c2ccc3ncc(-c4cccc5c4OC(F)(F)O5)n3n2)CC1 [isopropyl 4-(3-(2,2-difluorobenzo[d][1,3]dioxol-4-yl)imidazo[1,2-b]pyridazin-6-yl)piperazine-1-carboxylate] | ≤ 10 nM | ≤ 1000 nM
COc1ccc(-c2cnc3ccc(NC[C@@H]4CCCN4C(=O)CC(C)C)nn23)cc1 [(S)-1-(2-(((3-(4-methoxyphenyl)imidazo[1,2-b]pyridazin-6-yl)amino)methyl)pyrrolidin-1-yl)-3-methylbutan-1-one] | ≤ 10 nM | ≤ 1000 nM
COc1ccccc1-c1cnc2ccc(NC[C@@H]3CCCN3C(=O)OC3CCC3)nn12 [(S)-cyclobutyl 2-(((3-(2-methoxyphenyl)imidazo[1,2-b]pyridazin-6-yl)amino)methyl)pyrrolidine-1-carboxylate] | ≤ 10 nM | ≤ 100 nM
COc1ccccc1-c1cnc2ccc(N3CCN(C(=O)N4CCCC4)CC3)nn12 [(4-(3-(2-methoxyphenyl)imidazo[1,2-b]pyridazin-6-yl)piperazin-1-yl)(pyrrolidin-1-yl)methanone] | ≤ 10 nM | ≤ 100 nM
CCOC(=O)N1CCN(c2ccc3ncc(-c4ccccc4)n3n2)CC1 [ethyl 4-(3-phenylimidazo[1,2-b]pyridazin-6-yl)piperazine-1-carboxylate] | ≤ 10 nM | ≤ 100 nM
CC(=O)Nc1cccc(-c2cnc3ccc(NCCOC4CCCC4)nn23)c1 [N-(3-(6-((2-(cyclopentyloxy)ethyl)amino)imidazo[1,2-b]pyridazin-3-yl)phenyl)acetamide] | ≤ 100 nM | ≤ 100 nM
CC(C)(C)OC(=O)N1CCC[C@H]1CNc1ccc2ncc(C(F)F)n2n1 [(S)-Tert-butyl 2-(((3-(difluoromethyl)imidazo[1,2-b]pyridazin-6-yl)amino)methyl)pyrrolidine-1-carboxylate] | ≤ 10 nM | ≤ 1000 nM
CC(C)CC(=O)N1CCC[C@H]1CNc1ccc2ncc(-c3cccc(Cl)c3)n2n1 [(S)-1-(2-(((3-(3-chlorophenyl)imidazo[1,2-b]pyridazin-6-yl)amino)methyl)pyrrolidin-1-yl)-3-methylbutan-1-one] | ≤ 10 nM | ≤ 10 nM
COc1ccccc1-c1cnc2ccc(NC[C@@H]3CCCN3C(=O)NC3CCCC3)nn12 [(S)-N-cyclopentyl-2-(((3-(2-methoxyphenyl)imidazo[1,2-b]pyridazin-6-yl)amino)methyl)pyrrolidine-1-carboxamide] | ≤ 10 nM | ≤ 1000 nM
O=C(OC1CCCC1)N1CCC[C@H]1CNc1ccc2ncc(Br)n2n1 [(S)-cyclopentyl 2-(((3-bromoimidazo[1,2-b]pyridazin-6-yl)amino)methyl)pyrrolidine-1-carboxylate] | ≤ 10 nM | ≤ 10 nM
CC(C)CC(=O)N1CCC[C@H]1CNc1ccc2ncc(-c3ccc(C#N)cc3)n2n1 [(S)-4-(6-(((1-(3-methylbutanoyl)pyrrolidin-2-yl)methyl)amino)imidazo[1,2-b]pyridazin-3-yl)benzonitrile] | ≤ 10 nM | ≤ 10 nM
COc1ccccc1-c1cnc2ccc(NC[C@@H]3CCCN3C(=O)NC(C)(C)C)nn12 [(S)-N-(tert-butyl)-2-(((3-(2-methoxyphenyl)imidazo[1,2-b]pyridazin-6-yl)amino)methyl)pyrrolidine-1-carboxamide] | ≤ 10 nM | ≤ 100 nM
CC(C)(C)OC(=O)N1CC[C@H]1CNc1ccc2ncc(Br)n2n1 [(S)-tert-butyl 2-(((3-bromoimidazo[1,2-b]pyridazin-6-yl)amino)methyl)azetidine-1-carboxylate] | ≤ 10 nM | ≤ 100 nM
c1cc2c(cc1-c1cnc3ccc(NCCOC4CCCC4)nn13)OCO2 [3-(benzo[d][1,3]dioxol-5-yl)-N-(2-(cyclopentyloxy)ethyl)imidazo[1,2-b]pyridazin-6-amine] | ≤ 100 nM | ≤ 1000 nM
COc1ccccc1-c1cnc2ccc(N3CCN(C(=O)N4CCCCC4)CC3)nn12 [(4-(3-(2-methoxyphenyl)imidazo[1,2-b]pyridazin-6-yl)piperazin-1-yl)(piperidin-1-yl)methanone] | ≤ 10 nM | ≤ 100 nM
Oc1cccc(-c2cnc3ccc(NCCOC4CCCC4)nn23)c1 [3-(6-((2-(cyclopentyloxy)ethyl)amino)imidazo[1,2-b]pyridazin-3-yl)phenol] | ≤ 10 nM | ≤ 1000 nM
O=C(N1CCCC1)N1CCN(c2ccc3ncc(-c4ccccc4)n3n2)CC1 [(4-(3-phenylimidazo[1,2-b]pyridazin-6-yl)piperazin-1-yl)(pyrrolidin-1-yl)methanone] | ≤ 10 nM | ≤ 1000 nM
COc1cccc(-c2cnc3ccc(NC[C@@H]4CCCN4C(=O)CC(C)C)nn23)c1 [(S)-1-(2-(((3-(3-methoxyphenyl)imidazo[1,2-b]pyridazin-6-yl)amino)methyl)pyrrolidin-1-yl)-3-methylbutan-1-one] | ≤ 10 nM | ≤ 100 nM
CC(C)(C)CC(=O)N1CCC[C@H]1CNc1ccc2ncc(-c3ccc(CN)cc3)n2n1 [(S)-1-(2-(((3-(4-(aminomethyl)phenyl)imidazo[1,2-b]pyridazin-6-yl)amino)methyl)pyrrolidin-1-yl)-3,3-dimethylbutan-1-one] | ≤ 10 nM | ≤ 100 nM

Now from value to compound:

IC50 (AAK1 [1]) | IC50 (AAK1 [2]) | Structure (SMILES)
≤ 10 nM | ≤ 100 nM | COc1ncccc1-c1cnc2ccc(N3CC[C@H](N(C)C(=O)OCC(F)(F)F)C3)nn12 [(S)-2,2,2-trifluoroethyl (1-(3-(2-methoxypyridin-3-yl)imidazo[1,2-b]pyridazin-6-yl)pyrrolidin-3-yl)(methyl)carbamate]
≤ 10 nM | ≤ 10 nM | COc1ncccc1-c1cnc2ccc(N3CCN(C(=O)[C@@H](N)CC(C)C)CC3)nn12 [(S)-2-amino-1-(4-(3-(2-methoxypyridin-3-yl)imidazo[1,2-b]pyridazin-6-yl)piperazin-1-yl)-4-methylpentan-1-one]
≤ 10 nM | ≤ 10 nM | COc1ccccc1-c1cnc2ccc(N3CCN(C(=O)OC(C)C)CC3)nn12 [isopropyl 4-(3-(2-methoxyphenyl)imidazo[1,2-b]pyridazin-6-yl)piperazine-1-carboxylate]
≤ 10 nM | ≤ 100 nM | [2H]C([2H])([2H])Oc1ncccc1-c1cnc2ccc(N3CC[C@H](N(C)C(=O)OCC)C3)nn12 [(S)-ethyl (1-(3-(2-(trideuteromethoxy)pyridin-3-yl)imidazo[1,2-b]pyridazin-6-yl)pyrrolidin-3-yl)(methyl)carbamate]
≤ 10 nM | ≤ 10 nM | [2H]C([2H])([2H])Oc1ncccc1-c1cnc2ccc(N3CC[C@H](N(C)C(=O)OC(C)C)C3)nn12 [(S)-isopropyl (1-(3-(2-(tri-deuteromethoxy)pyridin-3-yl)imidazo[1,2-b]pyridazin-6-yl)pyrrolidin-3-yl)(methyl)carbamate]
≤ 10 nM | ≤ 100 nM | COc1ccccc1-c1cnc2ccc(N3CC[C@H](N(C)C(=O)OC(C)(C)C)C3)nn12 [(S)-tert-butyl (1-(3-(2-methoxyphenyl)imidazo[1,2-b]pyridazin-6-yl)pyrrolidin-3-yl)(methyl)carbamate]
≤ 10 nM | ≤ 100 nM | COc1cccc(-c2cnc3ccc(N4CCN(C(=O)OC(C)C)CC4)nn23)c1 [isopropyl 4-(3-(3-methoxyphenyl)imidazo[1,2-b]pyridazin-6-yl)piperazine-1-carboxylate]
≤ 10 nM | ≤ 100 nM | CCOC(=O)N(C)[C@H]1CCN(c2ccc3ncc(-c4cc(F)ccc4OC)n3n2)C1 [(S)-ethyl (1-(3-(5-fluoro-2-methoxyphenyl)imidazo[1,2-b]pyridazin-6-yl)pyrrolidin-3-yl)(methyl)carbamate]
≤ 10 nM | ≤ 10 nM | COc1nc(C)ccc1-c1cnc2ccc(N3CCN(C(=O)OC(C)C)CC3)nn12 [isopropyl 4-(3-(2-methoxy-6-methylpyridin-3-yl)imidazo[1,2-b]pyridazin-6-yl)piperazine-1-carboxylate]
≤ 10 nM | ≤ 10 nM | CC(C)OC(=O)N(C)[C@H]1CCN(c2ccc3ncc(-c4ccc(CN)cc4)n3n2)C1 [(S)-isopropyl (1-(3-(4-(aminomethyl)phenyl)imidazo[1,2-b]pyridazin-6-yl)pyrrolidin-3-yl)(methyl)carbamate]
≤ 10 nM | ≤ 1000 nM | CN(C(=O)OC(C)(C)C)[C@H]1CCN(c2ccc3ncc(-c4ccncc4)n3n2)C1 [(S)-tert-butyl methyl(1-(3-(pyridin-4-yl)imidazo[1,2-b]pyridazin-6-yl)pyrrolidin-3-yl)carbamate]
≤ 10 nM | ≤ 100 nM | COc1ncc(C)cc1-c1cnc2ccc(N3CC[C@H](N(C)C(=O)OC(C)C)C3)nn12 [(S)-isopropyl (1-(3-(2-methoxy-5-methylpyridin-3-yl)imidazo[1,2-b]pyridazin-6-yl)pyrrolidin-3-yl)(methyl)carbamate]
≤ 10 nM | ≤ 100 nM | COc1ncc(F)cc1-c1cnc2ccc(N3CC[C@H](N(C)C(=O)OC(C)C)C3)nn12 [(S)-isopropyl (1-(3-(5-fluoro-2-methoxypyridin-3-yl)imidazo[1,2-b]pyridazin-6-yl)pyrrolidin-3-yl)(methyl)carbamate]
≤ 10 nM | ≤ 1000 nM | CN(C(=O)OC(C)(C)C)[C@H]1CCN(c2ccc3ncc(Br)n3n2)C1 [[(S)-1-(3-Bromo-imidazo[1,2-b]pyridazin-6-yl)-pyrrolidin-3-yl]-methyl-carbamic acid tert-butyl ester]
